Data on two molecules can be found in ChEMBL document CHEMBL3044569, “Mini-plot field experiments using seed dressings to control slug damage to oilseed rape” (Crop Prot, 2006).

The structures appear in SMILES notation. Calls of active or inactive are those of the source. The calls are words filed in the database; no cut-off is given here.

Data set [1] has as its system Deroceras reticulatum. In words: Pesticidal activity against Deroceras reticulatum infected oilseed rape assessed as protection against slug damage studied in spring applied during seed dressing at 60 g a.i/kg seed after 2 to 4 weeks relative to untreated control. It is filed as functional, organism-based.
Data set [2] has as its system Deroceras reticulatum. Kind of data set: Pesticidal activity against Deroceras reticulatum infected oilseed rape assessed as protection against slug damage studied in spring applied as pellet at 8 kg product/ha after 1 to 4 weeks relative to untreated control. The format is functional, organism-based.
The subject of data set [3] is Brassica napus. In words: Phytotoxicity in Brassica napus (oilseed rape) at 60 g a.i/kg applied during seed dressing after 4 weeks studied in spring (reference value: 91 +/- 2.8 %). The note with it: in vivo, other, 672 h. The format is organism-based.
The subject of data set [4] is Brassica napus. Kind of data set: Phytotoxicity in Brassica napus (oilseed rape) at 58 g a.i/kg applied during seed dressing after 4 weeks studied in autumn (reference value: 89 +/- 2.9 %). It is filed as organism-based. The note with it: in vivo, other, 672 h.
The test system of data set [5] is Deroceras reticulatum. In words: Pesticidal activity against Deroceras reticulatum infected oilseed rape assessed as protection against slug damage studied in autumn applied as pellet at 8 kg product/ha after 1 to 4 weeks relative to untreated control. The format is functional, organism-based.
For data set [6], the system named is Deroceras reticulatum. Kind of data set: Pesticidal activity against Deroceras reticulatum infected oilseed rape assessed as protection against slug damage studied in autumn applied during seed dressing at 58 g a.i/kg seed after 1 to 4 weeks relative to untreated control. It is filed as functional, organism-based.
Data set [7] has as its system Brassica napus. In words: Phytotoxicity in Brassica napus (oilseed rape) at 20 g a.i/kg applied during seed dressing after 4 weeks studied in spring (reference value: 91 +/- 2.8 %). The format is organism-based. The note with it: in vivo, other, 672 h.
The test system of data set [8] is Deroceras reticulatum. Kind of data set: Pesticidal activity against Deroceras reticulatum infected oilseed rape assessed as protection against slug damage studied in spring applied during seed dressing at 20 g a.i/kg seed after 2 to 4 weeks relative to untreated control. The format is functional, organism-based.
In data set [9] the test system is Brassica napus. In words: Phytotoxicity in Brassica napus (oilseed rape) at 18 g a.i/kg applied during seed dressing after 4 weeks studied in autumn (reference value: 89 +/- 2.9 %). It is filed as organism-based. The note with it: in vivo, other, 672 h.
For data set [10], the system named is Deroceras reticulatum. Kind of data set: Pesticidal activity against Deroceras reticulatum infected oilseed rape assessed as protection against slug damage studied in autumn applied during seed dressing at 18 g a.i/kg seed after 1 to 4 weeks relative to untreated control. The format is functional, organism-based.

As to `CC1OC(C)OC(C)OC(C)O1` (stereo not given) [METALDEHYDE], the outcome with Deroceras reticulatum [1], in the data set with Deroceras reticulatum [2], in the data set with Deroceras reticulatum [5] and in the data set with Deroceras reticulatum [6] was Active. The Activity amounted to 90.3% in the data set on Brassica napus [3] and 77% in the data set with Brassica napus [4].

`CNC(=O)Oc1cc(C)c(SC)c(C)c1` [METHIOCARB]: the Activity in the data set on Brassica napus [7] was 87.5%; in the data set on Brassica napus [9], 86.5%. The result with Deroceras reticulatum [8] and in the data set with Deroceras reticulatum [10] was Active.
